Tests used:
[1] = system: monoclonal antibody F58-10E4; test: Inhibition method: monoclonal antibody F58-10E4 binding to HSBK-adhered plate in presence of N-sulfated heparosan; conditions: 20 μg/well; F58-10E4 1 μg/mL; lot as prepared
Method: A polysaccharide in which biotin is bound to the reducing end of HSBK was prepared using HSBK instead of NAH and in accordance with the method described in Example 1(3). Next, this was adhered to a plate in accordance with the method described in Example 9.
The monoclonal antibody F58-10E4 (final concentration: 1 μg/mL) and the 9 lots of N-sulfated heparosan (20 μg/well; a value corrected based on the uronic acid content obtained by the carbazole method) were added to the plate to which HSBK was adhered to effect the antigen-antibody reaction under the conditions described in Example 7, and the absorbance was measured by the method described in Example 7. This is a measurement by a so-called inhibition method. When concentration of the N-sulfated heparosan in the antigen-antibody reaction liquid is 0, substantially all of the monoclonal antibody F58-10E4 binds to the adhered HSBK and the detected absorbance becomes high.
By regarding the absorbance when concentration of the N-sulfated heparosan in the antigen-antibody reaction liquid is 0 as “inhibition rate 0%”, and the absorbance when excess concentration of N-sulfated heparosan is present in the antigen-antibody reaction liquid as “inhibition rate 100%”, the inhibition ratio was calculated on the 9 lots of N-sulfated heparosan. […]
The inhibition rates of these substances were also calculated in the same manner. […]

[2] = molecular target: T1, NDST2 (ND activity) (Homo sapiens, UniProt P52849); test: Screening of ND activity inhibitors using the plate to which NAH-biotin was adhered via avidin (JM403 ELISA); type: biochemical; conditions: final concentration 100, 10 or 1 μg/ml; for ranking of ability to inhibit ND activity among NAH, HP, NSDS-HP and HSBK: FIG. 8; for function to inhibit ND activity (rate of change, FIG. 8): NDST enzyme liquid 80 times diluted, 37° C. 60 minutes
T1 construct: baculovirus gp67 signal peptide (39 amino acids) (N, cleaved yes); made in house; host or cells: Sf21 insect cells infected with recombinant baculovirus (virus stock made in Sf9)
T1 sequence (P52849 79-883): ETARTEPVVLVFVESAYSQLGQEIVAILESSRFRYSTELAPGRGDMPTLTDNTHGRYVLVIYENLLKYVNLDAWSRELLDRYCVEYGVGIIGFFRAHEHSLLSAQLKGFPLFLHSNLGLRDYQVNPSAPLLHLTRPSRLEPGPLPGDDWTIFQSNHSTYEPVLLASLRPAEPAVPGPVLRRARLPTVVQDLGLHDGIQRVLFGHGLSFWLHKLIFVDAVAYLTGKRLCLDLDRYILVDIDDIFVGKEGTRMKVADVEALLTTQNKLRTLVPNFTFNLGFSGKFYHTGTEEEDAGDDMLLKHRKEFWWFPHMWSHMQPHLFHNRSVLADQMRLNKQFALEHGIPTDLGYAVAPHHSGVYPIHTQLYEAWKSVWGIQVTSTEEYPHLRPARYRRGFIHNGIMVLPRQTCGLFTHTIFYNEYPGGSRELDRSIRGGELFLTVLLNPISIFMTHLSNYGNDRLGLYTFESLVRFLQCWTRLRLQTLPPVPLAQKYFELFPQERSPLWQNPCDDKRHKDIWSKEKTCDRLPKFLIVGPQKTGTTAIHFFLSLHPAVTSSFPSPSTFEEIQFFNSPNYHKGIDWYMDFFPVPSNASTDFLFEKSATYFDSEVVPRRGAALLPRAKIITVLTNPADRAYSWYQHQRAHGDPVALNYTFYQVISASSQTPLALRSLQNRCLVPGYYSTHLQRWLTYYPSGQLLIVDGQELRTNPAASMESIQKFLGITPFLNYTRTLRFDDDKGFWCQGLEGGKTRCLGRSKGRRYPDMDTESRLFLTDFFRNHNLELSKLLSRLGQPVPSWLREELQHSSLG
Method: Each of the following 6 substances to be tested was diluted to 200, 20 or 2 μg/ml using the enzyme reaction liquid 1. Quickly after addition of 25 μl of the solutions to each well of the solid phase (plate) produced in Example 9, 25 μl of an “NDST enzyme liquid diluted 40 times with the enzyme reaction liquid I” was added to each well (final concentration of each substance to be tested 100, 10 or 1 μg/ml, final dilution rate of the enzyme liquid 80 times).
Thereafter, the enzyme reaction was effected by standing still at 37° C. for 60 minutes. In this connection, the enzyme reaction liquid 1 alone was added to the wells to which the substances to be tested were not added.
After completion of the reaction, the wells were washed three times with T-TBS and 100 μl of a solution of the monoclonal antibody JM403 (Seikagaku Corporation) adjusted to 1 μg/ml with TBS was added to each well. Thereafter, the plate was allowed to stand still at ordinary temperature (15 to 25° C.) for 60 minutes to undergo the antigen-antibody reaction. After the reaction, the wells were washed three times with T-TBS, and 100 μl of the HRP-labeled goat anti-mouse immunoglobulin G+M antibody diluted 20000 times with TBS was added to each well. Thereafter, the plate was allowed to stand still at ordinary temperature for 60 minutes to undergo the antigen-antibody reaction.
After the reaction, this plate was washed three times with T-TBS, and 100 μl of the TMB solution was added to each well and allowed to undergo the reaction at ordinary temperature for 30 minutes to develop a color. Thereafter, the reaction was terminated by adding 100 μl of the reaction terminating liquid to each well, and then the absorbance was measured by the same method described in Example 5. Also, the rate of change (%) was calculated by the following calculation formula. Rate of change(%)=100×((the value of absorbance when each substance to be tested is not added)−(the value of absorbance when each substance to be tested at respective concentration is added))/(the value of absorbance when each substance to be tested is not added).
In this connection, since the monoclonal antibody JM403 binds to the GlcN residues in NAH (that is, de-N-acetylated GlcNAc residue), higher value of the detected absorbance means that the number of GlcN residues in NAH is larger (that is, the number of de-N-acetylated GlcNAc residues is larger), namely the ND activity is higher. On the contrary, lower value of the detected absorbance means that the number of GlcN residues in NAH is smaller (that is, the number of de-N-acetylated GlcNAc residues is smaller), namely the ND activity is low.
Additionally, when a substance to be tested inhibits ND activity, the aforementioned rate of change (%) becomes a positive number. Also, higher value of the rate of change means higher ability of the substance to be tested to inhibit ND.

| Inhibition rate (%) No treatment [1] [%] | ranking of ability to inhibit ND activity among NAH, HP, NSDS-HP and HSBK [2] | Substance | function to inhibit ND activity (rate of change, FIG. 8) [2] |
| --- | --- | --- | --- |
| 99 | highest ability to inhibit ND activity | Bovine kidney-derived HS [HSBK] | inhibit ND activity concentration-dependently |
|  |  | Cockscomb-derived hyaluronic acid [HA] | hardly possessed of the function to inhibit ND activity |
|  | lowest ability to inhibit ND activity | N-acetyl heparosan [NAH] | inhibit ND activity concentration-dependently |
|  |  | N-sulfated/completely de-O-sulfated HP [NSDS-HP] | inhibit ND activity concentration-dependently |
|  |  | Partially de-N-acetylated NAH [PDNAC-NAH] | hardly possessed of the function to inhibit ND activity |
|  |  | Swine small intestine-derived HP | inhibit ND activity concentration-dependently |

— patent US9150902B2, “Method for determination of N-deacetylase/N-sulfotransferase activity” (SEIKAGAKU CORPORATION, priority 2005, dated 2015)
